The values that follow come from patent US5227384A, “5-substituted [4,5-c] imidazopyridines and pharmaceutical use thereof” (G. D. Searle & Co., priority 1991, dated 1993).

pIC50: −log10 of the molar value.

By pIC50 is commonly meant −log10 of the IC50, conventionally taken in molar units.

In test [1] the test system is rabbit platelets. Kind of test: PAF-induced platelet secretion ([^3 H]serotonin). To be noted: Oryctolagus cuniculus, washed [^3 H]serotonin-labeled rabbit platelets, 60 sec after PAF, IC50 by inspection of dose-response curves. Type of test: cell-based. The procedure:
(§1) PAF-induced platelet aggregation and secretion: Washed, [^3 H]serotonin-labeled rabbit platelets were prepared as previously described in COX, C. P., J. LINDEN and S. I. SAID: VIP elevates platelet cyclic AMP (cAMP) levels and inhibits in vitro platelet activation induced by platelet-activating factor (PAF). Peptides 5:25-28, 1984, and maintained in an atmosphere of 5% CO2 at 37° C. until used in the bioassay. […] Aggregation was continuously monitored on a strip-chart recorder and recorded as the height of the tracing at 60 sec after the addition of PAF. Secretion of [^3 H]serotonin was measured in a sample of the platelet suspension removed at 60 sec after the addition of PAF. The percent inhibition of aggregation and secretion was calculated by comparing antagonist-treated platelets with the appropriate vehicle-treated control platelets. Each combination of antagonist and PAF was repeated 12-15 times, using several different platelet preparations. IC50 values were determined by inspection of the dose-response curves.

In test [2] the test system is rabbit platelets. Kind of test: PAF-induced platelet aggregation. Format: cell-based. To be noted: Oryctolagus cuniculus, washed rabbit platelets, 60 sec after PAF, IC50 by inspection of dose-response curves. The procedure: as §1
The target in test [3] is PAF receptor (Human Platelet Membrane Receptors) (Homo sapiens, UniProt P25105).
PAF receptor (Human Platelet Membrane Receptors), sequence (P25105 whole entry): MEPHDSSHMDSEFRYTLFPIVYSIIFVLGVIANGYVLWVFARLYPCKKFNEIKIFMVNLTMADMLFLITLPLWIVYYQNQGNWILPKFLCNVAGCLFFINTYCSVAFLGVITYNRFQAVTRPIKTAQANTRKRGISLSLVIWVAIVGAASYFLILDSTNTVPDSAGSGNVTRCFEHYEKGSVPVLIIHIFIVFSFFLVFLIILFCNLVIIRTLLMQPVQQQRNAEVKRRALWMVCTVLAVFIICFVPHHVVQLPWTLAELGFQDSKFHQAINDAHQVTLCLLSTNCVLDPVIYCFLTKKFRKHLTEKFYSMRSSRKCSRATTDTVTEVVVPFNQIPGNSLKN
Experimental: Inhibition of ^3 H-PAF Binding to Human Platelet Membrane Receptors
Receptor Preparation: Ten units of in-dated human packed platelets, each containing 45-65 ml platelet rich-plasma, were purchased from a commercial blood bank. Disposable plasticware was used throughout for receptor preparation. The units were pooled and a 1 ml aliquot was removed for determination of platelet concentration, using a Coulter Counter. The remaining platelet rich plasma was dispensed into 50 ml conical tubes and centrifuged at room temperature for 15 minutes at 3000 RPM (2300×g).Plasma was decanted and the platelets were resuspended in 35 ml of buffer 10 mM Trizma 7.0, 2 mM EDTA (dipotassium salt), and 150 mM KCl) and transferred to fresh tubes, which were centrifuged again as above. The platelets were washed 3 times, avoiding contaminating erythrocytes at the bottom of the pellets. Pellets were consolidated at each step, and by the last wash with EDTA/KCl buffer, most of the erythrocytes were in 1 tube. The pellets were resuspended in buffer containing 10 mM Trizma 7.0 with 10 mM CaCl2. Following centrifugation, the buffer was decanted and the pellets were resuspended in the CaCl2 buffer, avoiding erythrocyte contamination by recovering less than 100% of the platelet pellets. The resuspended platelets were dispensed in 8-10 ml aliquots into Corex tubes and disrupted by three cycles of freezing (dry ice/ethanol) and thawing (24° C.). The tubes were centrifuged at 40,000×g for 20 minutes at 4° C. Supernatants were decanted and each pellet was resuspended in 5-7 ml 10 mM Trizma 7.0. All resuspended pellets were pooled and aliquots of about 1200 ml were dispensed into 1.5 ml microfuge tubes and frozen at -70° C. Protein content was determined by a fluorescamine protein assay.
Assay Methods: Receptor Characterization--Each receptor preparation was evaluated to determine the number of receptor populations, the number of PAF receptor equivalents/mg protein and the dissociation constant (KD) for PAF binding. This required 2-3 experiments in which the protein concentration was held constant and the ^3 H-PAF ligand concentration was varied from approximately 0.10-2.5 nM and the data was analyzed by Scatchard methodology. Total incubation volume was 250 ml for these procedures and incubations were conducted at 24° C. for 30 minutes. For further experimentation, total incubation volumes are 500 ml. Protein and ligand concentrations were adjusted to give 0.075 nM receptor equivalents in the presence of 0.75 nM ^3 H-PAF. Each receptor preparation was then used to determine the dose--response displacement relationship of unlabeled PAF and the PAF antagonist, triazolam.
Assay Methods: Routine Assay of Compounds--The compounds were weighed precisely and solubilized in quantities of DMSO such that a 5 ml aliquot in the incubate would deliver the desired compound concentration. Compounds tested for the first time in this assay were evaluated at a concentration of 50 mM in the incubation medium. […] Triazolam was always included in each screening assay as a compound inhibition control. […] Nonspecific binding control solution was made by drying to completion about 26.2 ml unlabeled PAF under a stream of argon. PAF was resolubilized in 1000 ml DMSO. When delivered in a 5 ml aliquot, the final concentration of 1 mM PAF in the incubate exceeded by 1000-fold the concentration of ^3 H-PAF.
All buffers containing proteins were made at room temperature on the day of assay. Assay buffer was prepared by adding 125 mg human albumin to 25 ml of stock buffer (10 mM Trizma 7.4 with 20 mM CaCl2). Rinse buffer was made by adding 20 grams bovine serum albumin to i000 ml stock buffer. About 80 ml of rinse buffer was decanted into a small pyrex dish and used to soak 65 Whatman GF/C 2.5 cm glass filters. The remaining rinse buffer was poured into a repipet and placed into an ice bath along with the filters.

Turning to `CC1CCCC(N(C(=O)c2ccc(Cn3ccc4ncnc-4c3)cc2)C2CCCC2)C1` (centres unmarked) [5-[4-(N-3-methylcyclohexyl-N-cyclopentylcarboxamido)benzyl]imidazo[4,5-c]pyridine], the pIC50 was 8.00 to 9.00 in the test on rabbit platelets [1] (1 min), 7.00 to 8.00 in the test with rabbit platelets [2] (1 min) and 7.13 in test [3].

Consider `COc1cc(C(=O)N(C(C)C)C2CCCCC2)ccc1Cn1ccc2ncnc-2c1` [5-[4{-(N-isopropyl,N-cyclohexyl)carboxamido}-2-methoxybenzyl]imidazo[4,5-c]pyridine], for which the pIC50 in the test on rabbit platelets [1] is 8.00; in the test on rabbit platelets [2] (1 min), 7.00 to 8.00; in test [3], 7.18.

In the case of `CCCCCCCCCCCCNC(=O)c1ccc(Cn2ccc3ncnc-3c2)cc1` [5-[4-(N-n-dodecylcarboxamido)benzyl]imidazo[4,5-c]pyridine], the figures for the negative logarithm of the IC50 (pIC50) (in the test with rabbit platelets [2] (1 min); in test [3]) were 6.00 to 7.00 and 4.92, respectively.

Consider `O=C(c1ccc(Cn2ccc3ncnc-3c2)cc1)N(C1CCCCC1)C1CCC1` [5-[4-(N-cyclobutyl-N-cyclohexylcarboxamido)benzyl]imidazo[4,5-c]pyridine], for which the negative logarithm of the IC50 (pIC50) in the test with rabbit platelets [1] (1 min) was 8.00 to 9.00; in the test on rabbit platelets [2] (1 min), 7.00 to 8.00; in test [3], 7.70.

With `CC(C)N(C(=O)c1ccc(Cn2ccc3ncnc-3c2)cc1)C1CCCCC1` [5-[4{-(N-isopropylyl,N-cyclohexyl)carboxamido}benzyl]imidazo[4.5-c]pyridine], the results for the negative-log IC50 (pIC50) (in the test with rabbit platelets [1]; in the test with rabbit platelets [2] (1 min); in test [3]) were 8.00, 7.00 to 8.00 and 6.77, respectively.

For the molecule `CCN(C(=O)c1ccc(Cn2ccc3ncnc-3c2)cc1)C1CCCCC1` [5-[4-(N-ethyl-N-cyclohexylcarboxamido)carboxamido)benzyl]imidazo[4,5-c]pyridine], the negative-log IC50 (pIC50) was 6.00 to 7.00 in the test with rabbit platelets [1], 5.00 to 6.00 with rabbit platelets [2] and 5.28 in test [3].

Take `O=C(NC1CCCCC1)c1ccc(Cn2ccc3ncnc-3c2)cc1` [5-[4-(N-cyclohexylcarboxamido)benzyl]imidazo[4,5-c]pyridine]: the pIC50 in the test on rabbit platelets [1] (1 min) was 6.00 to 7.00; in the test on rabbit platelets [2] it was 5.00; in test [3], 4.71.

For `CN(C(=O)c1ccc(Cn2ccc3ncnc-3c2)cc1)C1CCCCC1` [5-[4-(N-methyl-N-cyclohexylcarboxamido)benzyl]imidazo[4,5-c]pyridine], the results for the negative logarithm of the IC50 (pIC50) (with rabbit platelets [1]; in the test on rabbit platelets [2] (1 min); in test [3]) were 6.14, 5.00 to 6.00 and 4.82, respectively.

For `Cc1c2ncnc-2ccn1Cc1ccc(C(=O)N(C2CCCC2)C2CCCC2)cc1` [5-[4-(N,N-dicyclopentylcarboxamido)benzyl]-4-methylimidazo[4,5-c]pyridine], the pIC50 in the test on rabbit platelets [1] (1 min) is 7.00 to 8.00; in the test on rabbit platelets [2] (1 min) it was 7.00 to 8.00; in test [3] it was 6.73.

As to `CCCCCCCCNC(=O)c1ccc(Cn2ccc3ncnc-3c2)cc1` [5-[4-(N-n-octylcarboxamido)benzyl]imidazo[4,5-c]pyridine], the pIC50 is 6.00 to 7.00 in the test on rabbit platelets [1] (1 min), 5.00 to 6.00 in the test with rabbit platelets [2] (1 min) and 4.96 in test [3].

On to `O=C(c1ccc(Cn2ccc3ncnc-3c2)cc1)N(c1ccccc1)C1CCCC1` [5-[4-(N-phenyl-N-cyclopentylcarboxamido)benzyl]imidazo[4,5-c]pyridine], for which the pIC50 in the test on rabbit platelets [1] (1 min) was 6.00 to 7.00; with rabbit platelets [2], 6.00; in test [3], 5.63.

As for `CC(C)N(C(=O)c1ccc(Cn2ccc3ncnc-3c2)cc1)C(C)C` [5-[4-(N,N-diisopropylcarboxamido)benzyl]imidazo[4,5-c]pyridine], the negative logarithm of the IC50 (pIC50) in the test with rabbit platelets [2] (1 min) was 5.00 to 6.00; in test [3], 5.12.

For the molecule `CN(C(=O)c1ccc(CCCn2ccc3ncnc-3c2)cc1)C1CCCCC1` [5-[3-[4-(N-methyl-N-cyclohexylcarboxamido)phenyl]propyl]imidazo[4,5-c]pyridine], the negative-log IC50 (pIC50) with rabbit platelets [1] (1 min) was 5.00 to 6.00; in the test on rabbit platelets [2] (1 min), 4.00 to 5.00; in test [3] it was 4.21.

For the molecule `CC(C)(C)CC(C)(C)NC(=O)c1ccc(Cn2ccc3ncnc-3c2)cc1` [5-[4-(N-2(2,4,4-trimethyl)pentylcarboxamide)benzyl]imidazo[4,5-c]pyridine], the pIC50 in the test on rabbit platelets [1] is 6.00; in the test with rabbit platelets [2], 5.00; in test [3] it was 4.65.

For `O=C(c1ccc(Cn2ccc3ncnc-3c2)cc1)N(C1CCCCC1)C1CC1` [5-[4-(N-cyclopropyl-N-cyclohexylcarboxamido)benzyl]imidazo[4,5-c]pyridine], the figures for the negative-log IC50 (pIC50) (in the test on rabbit platelets [1] (1 min); in test [3]) were 6.00 to 7.00 and 5.43, respectively.

`CC1CCC(N(C(=O)c2ccc(Cn3ccc4ncnc-4c3)cc2)C2CCCC2)CC1` (centres unmarked) [5-[4-(N-4-methylcyclohexyl-N-cyclopentylcarboxamido)benzyl]imidazo[4,5-c]pyridine]: the values for the negative logarithm of the IC50 (pIC50) (with rabbit platelets [1] (1 min); in the test with rabbit platelets [2] (1 min); in test [3]) were 7.00 to 8.00, 6.00 to 7.00 and 6.12, respectively.

Consider `CCCCCCCCCCNC(=O)c1ccc(Cn2ccc3ncnc-3c2)cc1` [5-[4-(N-n-decylcarboxamido)benzyl]imidazo[4,5-c]pyridine], for which the negative logarithm of the IC50 (pIC50) with rabbit platelets [1] (1 min) is 6.00 to 7.00; with rabbit platelets [2] (1 min), 5.00 to 6.00; in test [3] it was 5.01.

On to `O=C(c1ccc(Cn2ccc3ncnc-3c2)cc1)N(C1CCCCC1)C1CCCCC1` [5-[(4-(N,N-dicyclohexylcarboxamido)benzyl]imidazo[4,5-c]pyridine], for which the pIC50 is 8.00 with rabbit platelets [1], 6.00 to 7.00 with rabbit platelets [2] (1 min) and 5.97 in test [3].

With `O=C(c1ccc(Cn2ccc3ncnc-3c2)c(F)c1)N(C1CCCCC1)C1CCCC1` [5-[4-(N-cyclopentyl-N-cyclohexylcarboxamido)-2-fluorobenzyl]imidazo[4,5-c]pyridine], the values for the negative logarithm of the IC50 (pIC50) (in the test on rabbit platelets [1] (1 min); with rabbit platelets [2] (1 min); in test [3]) were 8.00 to 9.00, 7.00 to 8.00 and 7.12, respectively.

In the case of `CN(C(=O)c1ccc(Cn2ccc3ncnc-3c2)cc1)C1CCC2CCCCC2C1` (centres unmarked) [5-[4-(N-2-decalyl-N-methylcarboxamido)benzyl]imidazo[4,5-c]pyridine], the pIC50 with rabbit platelets [1] is 6.00; in test [3], 4.88.

As for `O=C(c1ccc(Cn2ccc3ncnc-3c2)cc1)N(C1CCCCC1)C1CCCC1` [5-[4-(N-cyclopentyl-N-cyclohexylcarboxamido)benzyl]imidazo[4,5-c]pyridine], the pIC50 is 8.00 to 9.00 in the test on rabbit platelets [1] (1 min), 7.00 to 8.00 in the test with rabbit platelets [2] (1 min) and 6.49 in test [3].

Take `O=C(c1ccc(Cn2ccc3ncnc-3c2)cc1)N(C1CCCC1)C1CCCC1` [5-[4-(N,N-dicyclopentylcarboxamido)benzyl]imidazo[4,5-c]pyridine]: the values for the negative logarithm of the IC50 (pIC50) (in the test on rabbit platelets [1] (1 min); with rabbit platelets [2] (1 min); in test [3]) were 8.00 to 9.00, 7.00 to 7.30 and 6.51, respectively.
